In patent EP3797781A1, “USE OF EC-7072 AND SYNERGIC COMPOSITIONS THEREOF IN TREATMENT OF CHRONIC LYMPHOCYTIC LEUKEMIA” (priority 2019, dated 2021):

System: T cells and NK cells
Experiment: Intracellular staining of IFN-γ and perforin upon PMA/ionomycin stimulation
Assay type: cell-based, human
Settings: 200 nM, 24 hours, PBMCs from patients with CLL (n = 4)
Experimental: PBMCs from patients with CLL were treated with 200 nM EC-7072 or DMSO for 24 hours and stimulated with PMA (50 ng/mL) and ionomycin (1 µg/mL) for 5 hours in the presence of GolgiPlug protein transport inhibitor (Beckton Dickinson). T cells and NK cells were then analyzed for intracellular levels of IFN-γ and perforin by flow cytometry.
The effect of EC-7072 toward healthy immune subsets, T lymphocytes and natural killer (NK) cells, which are chronically exposed to leukemia cells in the peripheral blood of patients with CLL was assessed by: • (i) incubating PBMCs isolated from patients with CLL (n = 10) following treatment with increasing concentrations of EC-7072 (0 - 400 nM) for 24 hours. Numbers of T cells (CD3^+CD56^-) (Figure 2A) and NK cells (CD3^-CD56^+) (Figure 2B) were evaluated by flow cytometry and normalized to their respective control (DMSO) condition for each individual patient to obtain percentage of relative number of T cells and NK cells, respectively; • (ii) incubating PBMCs isolated from patients with CLL (n = 6 - 10) following treatment with increasing concentrations of EC-7072 (0 - 400 nM) for 24 hours. […]

In the case of `CO[C@@H]([C@@H]1Cc2cc3cc(O[C@H]4C[C@@H](O[C@H]5C[C@@H](O)[C@H](O)[C@@H](C)O5)[C@H](O)[C@@H](C)O4)c(C)c(O)c3c(O)c2C(=O)[C@H]1O[C@H]1C[C@@H](O[C@H]2C[C@@H](O[C@H]3C[C@](C)(O)[C@H](O)[C@@H](C)O3)[C@@H](O)[C@@H](C)O2)[C@H](O)[C@@H](C)O1)[C@@H](O)C(C)=O` [EC-7072, mithramycin SK], the “production of interferon (IFN)-γ and perforin by T cells and NK cells” value was “not significantly altered”.
